According to patent publication US20060241098A1, “Pesticidal n-substituted azacyclic derivatives” (priority 2003, published 2006):
Read-outs that look alike come from different tables or passages of the source.

Columns and labels:
[1] = system: cotton aphid (Aphis gossypii); assay: Translaminar insecticidal activity test on cotton leaves, N-oxides versus free amines; format: in vivo; details: for mortality at 500 ppm: Aphis gossypii
Description: Certain N-Substituted azacyclic compounds where the N-substituent is O^− (the N-oxides) of the present invention were tested to determine their translaminar characteristics as evidenced by activity against cotton aphid (Aphis gossypii) in comparison with their corresponding free amine derivatives. These tests were conducted in the following manner: For each compound tested, one cotton plant with two mature leaves was selected. On the top of one of the leaves a sticky material used for trapping insects was applied using a stamp of about 2.5 centimeters in diameter. The process was repeated on the bottom of the second leaf of the cotton plant. A solution of 500 ppm of test compound (dissolved in 1:1 acetone and water containing a small amount of surfactant) was then applied to the entire side of each leaf opposite the side stamped with the sticky material using a saturated cotton swab. Upon completion of the application of the test compounds, the cotton plants were maintained in a growth chamber for about 18 hours. After this time the leaves of the test plant were infested with a known number of cotton aphids by placing an infested leaf cutting from the cotton aphid colony directly over the sticky material on each leaf. The leaf cutting on the bottom of a leaf of the test plant was secured to the leaf with a pin. The treated and infested cotton plants were then maintained in a chamber, during which time they were evaluated at daily intervals of from one to up to eight days. A test compound was termed active (A) if the top and bottom of the leaves of the test plant were mostly free of aphids (80% to 100%) when compared to untreated controls. […]

cotton aphid = assay: Residual insecticidal activity test on sprayed cotton plants; format: in vivo, Aphis gossypii; details: 72 h exposure; for mortality at 224 g/ha / mortality at 560 g/ha / mortality at 1120 g/ha: Aphis gossypii; for Percent Mortality 5 DAT (greenhouse): 5 day residual
Description: Certain N-Substituted azacyclic compounds where the N-substituent is O^− (the N-oxides) of the present invention were also tested to determine their residual insecticidal activity. These tests were conducted in the following manner:
For each rate of application of test compound, a 15 mL aliquot of test solution was prepared. Sufficient test compound was dissolved in 1.5 mL of acetone to provide an application rate as high as 1200 grams/Ha. Each solution was then added to 13.5 mL of water containing 300 ppm of a surfactant. There were four replicates for each rate of application of test compound, and all tests included a known chemical standard as well as a standard of water and untreated checks.
A maximum of 14 appropriately sized cotton plants for each rate of application and replicate were arranged in a 28 pot plastic flat and sprayed with the 15 mL sample of test compound using an traveling boom sprayer equipped with a cone spray tip at a rate of 30 gallons/acre under a pressure of 40-44 psi. The untreated checks were sprayed first, followed by the test compounds and standards, all in order of lowest to highest rates of application. Once the spraying was complete, the test plants were allowed to air-dry on the conveyor on which they were sprayed.
In the test to determine residual activity (0 Day Residual) one set of dry plants was infested with leaf cuttings covered with about 25 cotton aphids taken from cotton plants in an aphid colony. The cotton plants were then maintained in a greenhouse or in an atmosphere of simulated direct sunlight for 72 hours after which time cotton aphid mortality was determined.
A second set of dry test plants treated with test compounds were maintained for three days (3 Day Residual), then infested with cotton aphid. The infested plants were maintained and evaluated for cotton aphid mortality after 72 hours as set forth above. Other residual activity periods are optionally evaluated also, for example a 5 day residual.
At the end of the 72 hour exposure period the numbers of live insects were counted a percent mortality of aphids was calculated based on the number of live insects present and the number that were infested onto the plants.

[2] = 24 h, read-out: Percent Mortality at Day After treatment (DAT), 1 DAT
[3] = 72 h, read-out: Percent Mortality at Day After treatment (DAT), 3 DAT
[4] = 96 h, read-out: Percent Mortality at Day After treatment (DAT), 4 DAT
[5] = 120 h, read-out: Percent Mortality at Day After treatment (DAT), 5 DAT
[6] = 144 h, read-out: Percent Mortality at Day After treatment (DAT), 6 DAT
[7] = 168 h, read-out: Percent Mortality at Day After treatment (DAT), 7 DAT
[8] = 500 ppm applied to opposite leaf side, 1 DAT
[9] = 500 ppm applied to opposite leaf side, 3 DAT
[10] = 500 ppm applied to opposite leaf side
[11] = 500 ppm applied to opposite leaf side, 6 DAT
[12] = 500 ppm applied to opposite leaf side, 2 DAT
[13] = Table 4, 56 g/ha, 3 day residual, simulated sunlight environment
[14] = Table 4, 56 g/ha, greenhouse environment
[15] = Table 4, 56 g/ha, infested 0 days after treatment
[16] = Table 4, 112 g/ha, 3 day residual, simulated sunlight environment
[17] = Table 4, 112 g/ha, greenhouse environment
[18] = Table 4, 112 g/ha, infested 0 days after treatment
[19] = Table 4, 224 g/ha, 3 day residual, simulated sunlight environment
[20] = Table 4, 224 g/ha, greenhouse environment
[21] = Table 4, 224 g/ha, infested 0 days after treatment

Cc1nnn(C2C[N+]3([O-])CCC2CC3)n1 (stereo not shown) [Compound 407, N-Oxide of 5-methyl-2-quinuclidin-3-yl-1,2,3,4-tetraazole]
mortality at 500 ppm [1, 2]: < 50% | mortality at 500 ppm [1, 3]: 50 to 80% | mortality at 500 ppm [1, 4]: 50 to 80% | mortality at 500 ppm [1, 5]: 50 to 80% | mortality at 500 ppm [1, 6]: 50 to 80%

Cc1noc(C2CN3CCC2C3)n1 (stereo not shown) [Compound B, 5-(4-azabicyclo[2.2.1]hept-2-yl)-3-methyl-1,2,4-oxadiazole, reference compound]
mortality at 500 ppm [1, 2]: < 50% | mortality at 500 ppm ([1]; 48 h, read-out: Percent Mortality at Day After treatment (DAT), 2 DAT): < 50% | mortality at 500 ppm [1, 3]: < 50% | mortality at 500 ppm [1, 6]: < 50% | mortality at 500 ppm [1, 7]: < 50% | mortality at 500 ppm ([1]; 168 h, read-out: mortality throughout the seven-day test period): < 50% | mortality at 224 g/ha (cotton aphid; Table 3, 224 g/ha, 3 day residual, greenhouse environment, read-out: Percent Mortality 3 DAT (greenhouse)): 41% | mortality at 224 g/ha (cotton aphid; Table 3, 224 g/ha, 3 day residual, simulated sunlight environment, read-out: Percent Mortality 3 DAT (simulated sunlight)): 21% | mortality at 224 g/ha (cotton aphid; Table 3, 224 g/ha, infested 0 days after treatment, read-out: Percent Mortality 0 DAT): 100% | mortality at 560 g/ha (cotton aphid; Table 3, 560 g/ha, 3 day residual, greenhouse environment, read-out: Percent Mortality 3 DAT (greenhouse)): 84% | mortality at 560 g/ha (cotton aphid; Table 3, 560 g/ha, 3 day residual, simulated sunlight environment, read-out: Percent Mortality 3 DAT (simulated sunlight)): 49% | mortality at 560 g/ha (cotton aphid; Table 3, 560 g/ha, infested 0 days after treatment, read-out: Percent Mortality 0 DAT): 100% | mortality at 1120 g/ha (cotton aphid; Table 3, 1120 g/ha, 3 day residual, greenhouse environment, read-out: Percent Mortality 3 DAT (greenhouse)): 99% | mortality at 1120 g/ha (cotton aphid; Table 3, 1120 g/ha, 3 day residual, simulated sunlight environment, read-out: Percent Mortality 3 DAT (simulated sunlight)): 95% | mortality at 1120 g/ha (cotton aphid; Table 3, 1120 g/ha, infested 0 days after treatment, read-out: Percent Mortality 0 DAT): 100%

Cc1nnn(C2CN3CCC2CC3)n1 (stereo not shown) [E, 5-methyl-2-quinuclidin-3-yl-1,2,3,4-tetraazole]
mortality at 500 ppm [1, 2]: < 50% | mortality at 500 ppm [1, 3]: < 50% | mortality at 500 ppm [1, 4]: < 50% | mortality at 500 ppm [1, 5]: < 50% | mortality at 500 ppm [1, 6]: < 50%

CN1CCC=C(c2cnsn2)C1 [A, 3-[1-methyl(1,2,5,6-tetrahydropyrid-3-yl)]-1,2,5-thiadiazole]
mortality at 500 ppm ([1]; 24 h, 500 ppm applied to opposite leaf side, 1 DAT, read-out: Percent Mortality at Day After treatment (DAT), 1 DAT): < 50% | mortality at 500 ppm ([1]; 48 h, 500 ppm applied to opposite leaf side, 2 DAT, read-out: Percent Mortality at Day After treatment (DAT), 2 DAT): < 50% | mortality at 500 ppm ([1]; 72 h, 500 ppm applied to opposite leaf side, 3 DAT, read-out: Percent Mortality at Day After treatment (DAT), 3 DAT): < 50% | mortality at 500 ppm ([1]; 96 h, 500 ppm applied to opposite leaf side, 4 DAT, read-out: Percent Mortality at Day After treatment (DAT), 4 DAT): < 50% | mortality at 500 ppm ([1]; 144 h, 500 ppm applied to opposite leaf side, 6 DAT, read-out: Percent Mortality at Day After treatment (DAT), 6 DAT): < 50%

CCc1noc(C2C[N+]3([O-])CCC2C3)n1 (stereo not shown) [Compound 397, N-Oxide of 5-(4-azabicyclo[2.2.1]hept-2-yl)-3-ethyl-1,2,4-oxadiazole]
Percent Mortality at Day After treatment (DAT), 1 DAT [1, 8]: SA (SA is 50%-80% mortality when compared to the control) | Percent Mortality at Day After treatment (DAT), 3 DAT [1, 9]: SA (SA is 50%-80% mortality when compared to the control) | Percent Mortality at Day After treatment (DAT), 4 DAT ([1]; 500 ppm applied to opposite leaf side, 4 DAT): SA (SA is 50%-80% mortality when compared to the control) | Percent Mortality at Day After treatment (DAT), 5 DAT [1, 10]: SA (SA is 50%-80% mortality when compared to the control) | Percent Mortality at Day After treatment (DAT), 6 DAT [1, 11]: SA (SA is 50%-80% mortality when compared to the control)

Cc1nnn([C@H]2CN3CC[C@H]2C3)n1 [D, 2-(4-azabicyclo[2.2.1]heptyl-2-yl)-5-methyl-1,2,3,4-tetrazole]
mortality at 500 ppm [1, 6]: 50 to 80% | mortality at 500 ppm [1, 7]: 50 to 80%

Cc1nnn(C2C[N+]3([O-])CCC2C3)n1 (stereo not shown) [Compound 402, N-Oxide of 2-(4-azabicyclo[2.2.1]heptyl-2-yl)-5-methyl-1,2,3,4-tetrazole]
Percent Mortality at Day After treatment (DAT), 1 DAT [1, 8]: A (A is 80%-100% mortality when compared to the control) | Percent Mortality at Day After treatment (DAT), 2 DAT [1, 12]: A (A is 80%-100% mortality when compared to the control) | Percent Mortality at Day After treatment (DAT), 3 DAT [1, 9]: A (A is 80%-100% mortality when compared to the control) | Percent Mortality at Day After treatment (DAT), 6 DAT [1, 11]: A (A is 80%-100% mortality when compared to the control) | Percent Mortality at Day After treatment (DAT), 7 DAT ([1]; 500 ppm applied to opposite leaf side, 7 DAT): A (A is 80%-100% mortality when compared to the control) | Percent Mortality 3 DAT (simulated sunlight) (cotton aphid; [13]): 50% | Percent Mortality 5 DAT (greenhouse) (cotton aphid; [14]): 45% | Percent Mortality 0 DAT (cotton aphid; [15]): 50% | Percent Mortality 3 DAT (simulated sunlight) (cotton aphid; [16]): 84% | Percent Mortality 5 DAT (greenhouse) (cotton aphid; [17]): 70% | Percent Mortality 0 DAT (cotton aphid; [18]): 84% | Percent Mortality 3 DAT (simulated sunlight) (cotton aphid; [19]): 92% | Percent Mortality 5 DAT (greenhouse) (cotton aphid; [20]): 84% | Percent Mortality 0 DAT (cotton aphid; [21]): 92%

Cc1noc(C2C[N+]3([O-])CCC2C3)n1 (stereo not shown) [Compound 396, N-Oxide of 5-(4-azabicyclo[2.2.1]hept-2-yl)-3-methyl-1,2,4-oxadiazole]
Percent Mortality at Day After treatment (DAT), 2 DAT [1, 12]: A (A is 80%-100% mortality when compared to the control) | Percent Mortality at Day After treatment (DAT), 3 DAT [1, 9]: A (A is 80%-100% mortality when compared to the control) | Percent Mortality at Day After treatment (DAT), 5 DAT [1, 10]: A (A is 80%-100% mortality when compared to the control) | Percent Mortality at Day After treatment (DAT), 6 DAT [1, 11]: A (A is 80%-100% mortality when compared to the control) | mortality throughout the seven-day test period ([1]; 500 ppm, whole 7-day period): 100% | Percent Mortality 3 DAT (greenhouse) (cotton aphid; Table 3, 224 g/ha, 3 day residual, greenhouse environment): 98% | Percent Mortality 3 DAT (simulated sunlight) (cotton aphid; Table 3, 224 g/ha, 3 day residual, simulated sunlight environment): 99% | Percent Mortality 0 DAT (cotton aphid; Table 3, 224 g/ha, infested 0 days after treatment): 100% | Percent Mortality 3 DAT (greenhouse) (cotton aphid; Table 3, 560 g/ha, 3 day residual, greenhouse environment): 100% | Percent Mortality 3 DAT (simulated sunlight) (cotton aphid; Table 3, 560 g/ha, 3 day residual, simulated sunlight environment): 100% | Percent Mortality 0 DAT (cotton aphid; Table 3, 560 g/ha, infested 0 days after treatment): 100% | Percent Mortality 3 DAT (greenhouse) (cotton aphid; Table 3, 1120 g/ha, 3 day residual, greenhouse environment): 100% | Percent Mortality 3 DAT (simulated sunlight) (cotton aphid; Table 3, 1120 g/ha, 3 day residual, simulated sunlight environment): 100% | Percent Mortality 0 DAT (cotton aphid; Table 3, 1120 g/ha, infested 0 days after treatment): 100% | Percent Mortality 3 DAT (simulated sunlight) (cotton aphid; [13]): 58% | Percent Mortality 5 DAT (greenhouse) (cotton aphid; [14]): 64% | Percent Mortality 0 DAT (cotton aphid; [15]): 100% | Percent Mortality 3 DAT (simulated sunlight) (cotton aphid; [16]): 70% | Percent Mortality 5 DAT (greenhouse) (cotton aphid; [17]): 86% | Percent Mortality 0 DAT (cotton aphid; [18]): 100% | Percent Mortality 3 DAT (simulated sunlight) (cotton aphid; [19]): 98% | Percent Mortality 5 DAT (greenhouse) (cotton aphid; [20]): 93% | Percent Mortality 0 DAT (cotton aphid; [21]): 100%

CCc1noc(C2CN3CCC2C3)n1 (stereo not shown) [C, 5-(4-azabicyclo[2.2.1]hept-2-yl)-3-ethyl-1,2,4-oxadiazole]
mortality at 500 ppm [1, 2]: < 50% | mortality at 500 ppm [1, 3]: < 50% | mortality at 500 ppm [1, 4]: < 50% | mortality at 500 ppm [1, 5]: < 50% | mortality at 500 ppm [1, 6]: < 50%
